Where two headings read alike, the source gives them in different places.

In series [1] the target is BaF3-EGFR (L858R/T790M/C797S) (Homo sapiens, UniProt P00533, T790M/C797S/L858R, cells depend on it). The experiment in a line: CCK-8 cell proliferation, BaF3-EGFR(L858R/T790M/C797S). Type of series: cell-based. Particulars: CCK-8, 72 hours; read-out: Average value of IC50 of inhibition against EGFR-mutant cells growth, BaF3-EGFR (L858R/T790M/C797S). How it is done: (§1) Ba/F3 cells were obtained from Deutsche Sammlung von Mikroorganismen und Zellkulturen GmbH (DSMZ). […] All cells used in the study were verified by short tandem repeat (STR) analysis conducted by Genesky.
(§2) Tumor cell viability was assessed using a CCK-8 cell counting kit (A311-01/02, Vazyme, Nanjing, China). Cells were seeded at a density of 3000 cells per well into 96-well plates and cultured overnight. Subsequently, the cells were treated with compounds of different concentrations and incubated for 72 hours. After 72 hours, 10 μL of CCK-8 solution was added to each well. The plates were then returned to the incubator and incubated at 37° C. for 2 hours. The absorbance was measured at 450 nm using a microplate reader. A calibration curve was constructed using data obtained from wells containing known numbers of viable cells.

The next series deals with BaF3 parent cell. The experiment in a line: CCK-8 cell proliferation, BaF3 parent cell. Type of series: cell-based. Particulars: Mus musculus, read-out: Average value of IC50 of inhibition against cells growth, BaF3 parent cell.
Text: (§3) Ba/F3 cells were obtained from Deutsche Sammlung von Mikroorganismen und Zellkulturen GmbH (DSMZ). Ba/F3 cells stably expressing EGFR19del/T790M/C797S or EGFR L858R/T790M/C797S were generated by infecting parental cells with corresponding retroviruses. PC-9-OR was a tumor cell model obtained by simultaneously knocking in T790M and C797S mutations into 19del-activating mutation-dependent PC-9 tumor cells using CRISPR technology. This model, which proliferated dependent on EGFR19del/T790M/C797S resistance mutation, was used to evaluate the inhibitory activity of compounds against EGFR19del/T790M/C797S resistance mutants (Cancer Science. 2022; 113:709-720). All cells used in the study were verified by short tandem repeat (STR) analysis conducted by Genesky.
as §2

Series [2] addresses BaF3-EGFR (19del/T790M/C797S) (Homo sapiens, UniProt P00533, T790M/C797S, cells depend on it, form not given). The experiment in a line: CCK-8 cell proliferation, BaF3-EGFR(19del/T790M/C797S). It is filed as cell-based. To be noted: CCK-8, 72 hours; read-out: Average value of IC50 of inhibition against EGFR-mutant cells growth, BaF3-EGFR (19del/T790M/C797S). As for the experimental part: as §1, §2

Series [3] has as its system PC-9-OR (19del/T790M/C797S). The experiment in a line: CCK-8 cell proliferation, PC-9-OR. It is filed as cell-based. Particulars: PC9-OR, read-out: Average value of IC50 of inhibition against EGFR-mutant cells growth, PC-9-OR (19del/T790M/C797S).
Text: as §3, §2

A further series addresses EGFR^L858R/T790M/C797S (Homo sapiens, UniProt P00533, C797S/L858R/T790M). The experiment in a line: ELISA kinase activity inhibition, EGFR L858R/T790M/C797S. Type of series: biochemical. Particulars: ATP 5 μM, read-out: The average IC50 value (nM) for inhibiting the activity of different tyrosine kinases, EGFR^L858R/T790M/C797S. How it is done:
(§4) Enzyme-Linked Immunosorbent Assay (ELISA) was used to detect the inhibitory effect of compounds on kinase activity.
(§5) The main experimental steps were as follows: Enzyme reaction substrate Poly (Glu, Tyr)4:1 was diluted with potassium free PBS (10 mM sodium phosphate buffer, 150 mM NaCl, pH 7.2-7.4) to 20 μg/mL, and reacted at 37° C. for 12 hours to 16 hours to coat the enzyme-linked immunosorbent assay plate. ATP solution (final concentration 5 μM) diluted with reaction buffer (50 mM HEPES pH 7.4, 50 mM MgCl2, 0.5 mM MnCl2, 0.2 mM Na3VO4, 1 mM DTT) was added to each well, followed by the test compound or solvent control, then the kinase reaction was initiated and the plate was shaken at 37° C. for 1 hour. The plate was washed three times with T-PBS, then added antibody PY99. The plate was shaken at 37° C. for 0.5 hours. After washing the plate with T-PBS, added horseradish peroxidase-labeled IgG and shaken at 37° C. for 0.5 hours. After washing the plate again, added 2 mg/mL of OPD colorimetric solution and incubated at 25° C. in the dark for 1 minutes to 10 minutes. […] The IC50 values were obtained from the inhibition curve analysis.

The next series concerns the target T1, EGFR^19del/T790M/C797S (Homo sapiens, UniProt P00533, T790M/C797S, form not given).
T1 construct: fused on or other part: Probably a GST tag on the cytoplasmic fragment, as in the vendor's product
The experiment in a line: ELISA kinase activity inhibition, EGFR 19del/T790M/C797S. Type of series: biochemical. To be noted: ATP 5 μM, read-out: The average IC50 value (nM) for inhibiting the activity of different tyrosine kinases, EGFR^19del/T790M/C797S. As for the experimental part: (§6) EGFR (WT) is a wild-type epidermal growth factor receptor.
as §4, §5
(An ELISA detects its analyte on a solid surface through an enzyme-linked reagent.)

The target of another series is T2, EGFR^WT (Homo sapiens, UniProt P00533).
T2 construct: purchased Eurofins
The experiment in a line: ELISA kinase activity inhibition, wild-type EGFR. Type of series: biochemical. Particulars: ATP 5 μM, read-out: The average IC50 value (nM) for inhibiting the activity of different tyrosine kinases, EGFR^WT. As for the experimental part:
as §6, §4, §5

The nature of series [4]: Pharmacokinetic parameters in rats. To be noted: male, Sprague-Dawley, plasma, rat. Type of series: in vivo. As for the experimental part: Sprague-Dawley rats (males, 3 per group), weighing 180 g to 220 g, were administered test compounds intravenously and orally at doses of 1 mg/kg and 5 mg/kg, respectively. The compounds were dissolved in a mixed solvent (5% DMSO+10% Solutol+85% PBS) for intravenous injection. 0.5% CMC-Na solution (800 cps to 1200 cps) was used as a suspension agent for oral administration. At designated time points, 0.2 mL of blood samples were collected via the jugular vein and placed into tubes containing K2-EDTA, stored on ice, and then centrifuged. Sampling intervals for the injection group were 0.083, 0.25, 0.5, 1, 2, 4, 8, and 24 hours, while for the oral group, sampling intervals were 0.25, 0.5, 1, 2, 4, 6, 8, and 24 hours. The blood samples were centrifuged at 6800 g for 6 minutes at 2° C. to 8° C. within 1 hour after collection and stored frozen at approximately −80° C. Subsequently, 200 μL of MeOH was used to precipitate 20 μL of plasma samples containing 100 ng/mL IS. The mixture was vortexed for 1 minute and then centrifuged at 18000 g for 7 minutes. 200 μL of the supernatant was transferred to a 96-well plate, and 1 μL of the supernatant sample was injected for LC-MS/MS analysis. Finally, Phoenix WinNonlin7.0 software was used to calculate the pharmacokinetic (PK) parameters.

Sequence of BaF3-EGFR (L858R/T790M/C797S) (P00533 whole entry T790M/C797S/L858R): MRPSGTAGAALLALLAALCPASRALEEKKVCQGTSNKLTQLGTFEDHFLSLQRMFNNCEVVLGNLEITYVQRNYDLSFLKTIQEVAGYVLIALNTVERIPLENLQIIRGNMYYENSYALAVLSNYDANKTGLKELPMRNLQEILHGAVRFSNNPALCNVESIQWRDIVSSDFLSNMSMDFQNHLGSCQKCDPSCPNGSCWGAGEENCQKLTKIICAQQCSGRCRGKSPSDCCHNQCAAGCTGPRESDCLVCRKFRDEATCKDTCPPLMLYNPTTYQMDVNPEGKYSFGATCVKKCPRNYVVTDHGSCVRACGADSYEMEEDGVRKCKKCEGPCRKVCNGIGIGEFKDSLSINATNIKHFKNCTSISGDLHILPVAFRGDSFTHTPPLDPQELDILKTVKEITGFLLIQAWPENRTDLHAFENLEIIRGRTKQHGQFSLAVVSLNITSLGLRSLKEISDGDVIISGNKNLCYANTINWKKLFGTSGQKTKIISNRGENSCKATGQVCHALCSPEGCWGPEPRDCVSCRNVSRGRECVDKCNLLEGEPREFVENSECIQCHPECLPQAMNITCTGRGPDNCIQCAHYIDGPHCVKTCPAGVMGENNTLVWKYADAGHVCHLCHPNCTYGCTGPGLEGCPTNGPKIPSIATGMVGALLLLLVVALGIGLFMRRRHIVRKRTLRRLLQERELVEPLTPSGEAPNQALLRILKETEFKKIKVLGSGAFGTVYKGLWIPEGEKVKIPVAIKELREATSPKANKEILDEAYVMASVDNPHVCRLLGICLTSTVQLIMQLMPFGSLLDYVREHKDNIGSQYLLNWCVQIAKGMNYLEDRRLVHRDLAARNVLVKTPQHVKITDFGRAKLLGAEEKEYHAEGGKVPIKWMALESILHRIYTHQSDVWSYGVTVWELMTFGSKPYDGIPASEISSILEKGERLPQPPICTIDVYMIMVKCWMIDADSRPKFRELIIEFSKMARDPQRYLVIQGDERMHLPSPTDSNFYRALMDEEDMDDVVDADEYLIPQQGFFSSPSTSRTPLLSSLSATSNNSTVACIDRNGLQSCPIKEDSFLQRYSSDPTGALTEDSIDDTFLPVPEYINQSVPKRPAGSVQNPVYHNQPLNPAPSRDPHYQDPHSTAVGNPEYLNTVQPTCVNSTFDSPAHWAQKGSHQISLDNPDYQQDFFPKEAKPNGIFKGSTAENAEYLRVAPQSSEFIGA
T2 sequence (P00533 25-1210): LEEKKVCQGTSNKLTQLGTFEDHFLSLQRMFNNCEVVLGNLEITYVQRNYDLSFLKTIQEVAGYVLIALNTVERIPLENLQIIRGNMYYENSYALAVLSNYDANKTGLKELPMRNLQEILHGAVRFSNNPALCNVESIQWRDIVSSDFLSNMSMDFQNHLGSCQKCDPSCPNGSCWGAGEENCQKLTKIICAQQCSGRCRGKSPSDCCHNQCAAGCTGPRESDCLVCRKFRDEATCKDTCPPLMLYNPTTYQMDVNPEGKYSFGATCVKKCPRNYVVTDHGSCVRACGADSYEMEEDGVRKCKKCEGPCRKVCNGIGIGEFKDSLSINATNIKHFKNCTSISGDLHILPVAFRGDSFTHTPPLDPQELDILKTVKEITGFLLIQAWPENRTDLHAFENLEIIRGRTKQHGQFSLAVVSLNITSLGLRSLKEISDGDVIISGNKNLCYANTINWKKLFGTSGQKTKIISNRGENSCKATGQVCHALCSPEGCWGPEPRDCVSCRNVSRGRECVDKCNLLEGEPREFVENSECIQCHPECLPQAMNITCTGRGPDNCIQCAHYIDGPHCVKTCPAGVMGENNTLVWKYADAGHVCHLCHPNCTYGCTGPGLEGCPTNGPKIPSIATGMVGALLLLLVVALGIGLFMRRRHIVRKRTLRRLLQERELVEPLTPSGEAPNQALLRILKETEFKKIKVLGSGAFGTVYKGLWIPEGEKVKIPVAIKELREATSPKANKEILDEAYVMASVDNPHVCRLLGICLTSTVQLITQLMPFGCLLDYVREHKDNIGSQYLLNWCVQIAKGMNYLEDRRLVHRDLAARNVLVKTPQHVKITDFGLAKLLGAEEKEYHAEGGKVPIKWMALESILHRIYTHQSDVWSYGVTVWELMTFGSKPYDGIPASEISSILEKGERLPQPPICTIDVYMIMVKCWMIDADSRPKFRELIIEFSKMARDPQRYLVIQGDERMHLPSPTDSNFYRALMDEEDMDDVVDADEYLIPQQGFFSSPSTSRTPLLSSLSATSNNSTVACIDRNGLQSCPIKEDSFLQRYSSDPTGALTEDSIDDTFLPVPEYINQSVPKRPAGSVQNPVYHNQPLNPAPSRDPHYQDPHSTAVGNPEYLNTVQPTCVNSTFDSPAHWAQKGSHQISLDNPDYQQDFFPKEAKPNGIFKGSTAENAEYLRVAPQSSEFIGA
Sequence of EGFR^L858R/T790M/C797S (P00533 25-1210 T790M/C797S/L858R): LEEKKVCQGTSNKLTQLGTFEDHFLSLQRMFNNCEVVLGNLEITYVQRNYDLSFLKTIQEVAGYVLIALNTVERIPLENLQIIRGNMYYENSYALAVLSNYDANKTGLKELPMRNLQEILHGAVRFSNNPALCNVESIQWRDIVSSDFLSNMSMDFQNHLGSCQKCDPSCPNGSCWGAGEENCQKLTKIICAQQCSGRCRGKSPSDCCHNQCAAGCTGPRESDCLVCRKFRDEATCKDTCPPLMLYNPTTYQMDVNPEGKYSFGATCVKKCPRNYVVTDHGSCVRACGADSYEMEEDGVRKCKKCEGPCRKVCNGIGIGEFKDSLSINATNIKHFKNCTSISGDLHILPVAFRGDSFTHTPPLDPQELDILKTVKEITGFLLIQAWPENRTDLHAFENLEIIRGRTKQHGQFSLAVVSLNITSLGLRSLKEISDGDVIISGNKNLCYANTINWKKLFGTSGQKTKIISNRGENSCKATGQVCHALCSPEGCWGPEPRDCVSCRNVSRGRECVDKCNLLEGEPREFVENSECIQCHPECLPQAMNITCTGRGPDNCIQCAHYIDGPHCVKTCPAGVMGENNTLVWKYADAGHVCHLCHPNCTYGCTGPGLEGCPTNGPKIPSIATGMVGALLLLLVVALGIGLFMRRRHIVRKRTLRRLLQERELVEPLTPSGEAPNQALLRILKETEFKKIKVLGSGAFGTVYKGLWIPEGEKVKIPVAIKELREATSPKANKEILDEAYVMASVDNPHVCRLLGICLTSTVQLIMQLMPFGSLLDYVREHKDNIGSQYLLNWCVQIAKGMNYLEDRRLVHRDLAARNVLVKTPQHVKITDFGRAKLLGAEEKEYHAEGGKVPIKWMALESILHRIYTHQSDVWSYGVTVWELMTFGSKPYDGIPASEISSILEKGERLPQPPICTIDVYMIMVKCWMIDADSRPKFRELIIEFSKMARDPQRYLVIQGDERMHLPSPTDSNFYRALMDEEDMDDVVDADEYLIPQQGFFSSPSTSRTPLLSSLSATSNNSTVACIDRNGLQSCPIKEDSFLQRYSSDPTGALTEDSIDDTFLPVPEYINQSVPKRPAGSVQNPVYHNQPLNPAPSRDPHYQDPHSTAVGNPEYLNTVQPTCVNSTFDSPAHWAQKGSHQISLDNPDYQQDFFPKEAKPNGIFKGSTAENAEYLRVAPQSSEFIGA
Sequence of BaF3-EGFR (19del/T790M/C797S) (P00533 with tags, fused parts or gaps DEL746-750/T790M/C797S, form open): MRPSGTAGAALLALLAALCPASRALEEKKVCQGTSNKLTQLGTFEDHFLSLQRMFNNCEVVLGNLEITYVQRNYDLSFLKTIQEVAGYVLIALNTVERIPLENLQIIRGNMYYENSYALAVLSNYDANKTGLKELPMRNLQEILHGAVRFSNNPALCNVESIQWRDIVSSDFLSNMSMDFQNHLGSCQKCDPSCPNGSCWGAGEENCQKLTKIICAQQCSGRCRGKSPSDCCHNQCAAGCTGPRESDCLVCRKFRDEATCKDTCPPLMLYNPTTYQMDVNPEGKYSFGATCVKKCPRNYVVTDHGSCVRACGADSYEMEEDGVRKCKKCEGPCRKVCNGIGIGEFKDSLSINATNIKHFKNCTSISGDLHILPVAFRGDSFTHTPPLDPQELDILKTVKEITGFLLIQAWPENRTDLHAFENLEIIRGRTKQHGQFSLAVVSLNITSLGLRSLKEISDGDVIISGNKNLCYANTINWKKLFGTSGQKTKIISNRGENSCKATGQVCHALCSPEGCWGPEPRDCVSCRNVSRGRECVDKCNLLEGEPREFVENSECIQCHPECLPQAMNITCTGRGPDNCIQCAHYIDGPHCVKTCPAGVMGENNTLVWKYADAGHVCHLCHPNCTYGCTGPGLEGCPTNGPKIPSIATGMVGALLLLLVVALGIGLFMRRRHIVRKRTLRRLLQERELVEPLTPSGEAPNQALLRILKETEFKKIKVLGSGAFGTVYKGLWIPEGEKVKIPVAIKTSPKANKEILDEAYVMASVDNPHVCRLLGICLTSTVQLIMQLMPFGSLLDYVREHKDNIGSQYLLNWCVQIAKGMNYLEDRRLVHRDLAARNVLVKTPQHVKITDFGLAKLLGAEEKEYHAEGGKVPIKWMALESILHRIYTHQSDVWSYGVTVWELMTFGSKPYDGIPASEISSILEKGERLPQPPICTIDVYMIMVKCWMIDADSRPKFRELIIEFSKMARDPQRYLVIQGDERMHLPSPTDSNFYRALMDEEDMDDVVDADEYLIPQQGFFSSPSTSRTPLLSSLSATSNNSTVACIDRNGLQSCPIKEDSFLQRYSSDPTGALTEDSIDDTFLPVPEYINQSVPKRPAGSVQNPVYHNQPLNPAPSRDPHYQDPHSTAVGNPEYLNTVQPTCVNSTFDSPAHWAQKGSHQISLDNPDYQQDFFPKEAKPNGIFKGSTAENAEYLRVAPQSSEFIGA

Regarding `COc1cc(N2CCC(N3CCN(C)CC3)CC2)ccc1Nc1ncc(Cl)c(Nc2ccccc2P(C)(C)=O)n1` [Brigatinib, reference compound], the figures for the GI50 in series [1] and in series [2] were 777 nM and 221 nM, respectively. Besides, the IC50 in the series on BaF3 parent cell (BaF3, 72 h) was 1480 nM; in series [3] (72 h) it was 1450 nM.
`CCc1cc(N2CCOCC2)c2cc1Nc1nccc(n1)-c1cn(S(=O)(=O)CC)c3cc(ccc13)OCCCn1ccc-2n1` [FBH-3-47, (Z)-4^6-ethyl-1^1-(ethylsulfonyl)-4^4-morpholino-1^1H,5^1H-9-oxa-3-aza-1(3,6)-indole-2(4,2)-pyrimidine-5(4,1)-pyrazol-4(1,3)-benzenacyclononaphane]: the GI50 in series [1] came out at 327 nM; in series [2], 229 nM. Also, the IC50 with BaF3 parent cell (BaF3, CCK-8, 72 hours) was 2230 nM; on EGFR^L858R/T790M/C797S, 54.8 nM; at EGFR^19del/T790M/C797S it was 23.3 nM; on EGFR^WT it was > 1000 nM.
Take `CCS(=O)(=O)n1cc2c3ccc(cc31)OCCCn1cc(cn1)-c1cc(ccc1N1CCOCC1)Nc1ncc(Cl)c-2n1` [HC871, (Z)-2^5-Chloro-1^1-(ethylsulfonyl)-4^4-morpholino-1^1H,5^1H-9-oxa-3-aza-1(3,6)-indola-2(4,2)-pyrimidina-5(4,1)-pyrazola-4(1,3)-benzenacyclononaphane]: the GI50 in series [1] amounted to 74 nM; in series [2], 70 nM. The IC50 with BaF3 parent cell (BaF3, CCK-8, 72 hours) was 217 nM; on EGFR^L858R/T790M/C797S it was 4.9 nM; at EGFR^19del/T790M/C797S, 6.3 nM; at EGFR^WT, > 1000 nM; in series [3] (CCK-8, 72 hours) it was 85 nM.
Regarding `CCS(=O)(=O)n1cc2c3ccc(cc31)OCCCn1cc(cn1)-c1cc(ccc1N1CCOCC1)Nc1nccc-2n1` [HC950, 1^1-ethylsulfonyl-4^6-methyl-4^4-(4-methylpiperazin-1-yl)-1^1H,5^1H-9-oxa-3-aza-1(3,6)-indole-2(4,2)-pyrimidine-5(4,1)-pyrazole-4(1,3)-benzenacyclononaphane], the GI50 in series [1] was determined as 336 nM; in series [2], 170 nM. Further, the IC50 amounted to 950 nM in the series with BaF3 parent cell (BaF3, CCK-8, 72 hours); 0.4 nM at EGFR^L858R/T790M/C797S; 4.3 nM on EGFR^19del/T790M/C797S; 111 nM at EGFR^WT; 149 nM in series [3] (CCK-8, 72 hours).
Consider `CCS(=O)(=O)n1cc2c3ccc(cc31)OCCCn1cc(cn1)-c1cc(c(C)cc1N1CCOCC1)Nc1nccc-2n1` [HC950M, (Z)-1^1-Ethylsulfonyl-4^6-methyl-4^4-morpholino-1^1H,5^1H-9-oxa-3-aza-1 (3,6)-indole-2(4,2)-pyrimidine-5(4,1) pyrazol-4(1,3)-benzenacyclononaphane], for which the GI50 in series [1] was found to be 108 nM; in series [2], 86 nM. The IC50 in the series with BaF3 parent cell (BaF3, CCK-8, 72 hours) came to 445 nM; at EGFR^L858R/T790M/C797S it was 1.9 nM; at EGFR^19del/T790M/C797S, 7.3 nM; at EGFR^WT, 37.6 nM; in series [3] (CCK-8, 72 hours), 149 nM.
Turning to `CCOc1cc(N2CCOCC2)c2cc1Nc1nccc(n1)-c1cn(S(=O)(=O)CC)c3cc(ccc13)OCCCn1cc-2cn1` [HC9596, (Z)-4^6-ethoxy-1^1-ethylsulfonyl-4^4-morpholino-1^1H,5^1H-9-oxa-3-aza-1(3,6)-indole-2(4,2)-pyrimidine-5(4,1)-pyrazole-4(1,3)-benzenacyclononaphane], the GI50 was 455 nM in series [1] and 371 nM in series [2]. In addition, the IC50 in the series on BaF3 parent cell (BaF3, CCK-8, 72 hours) came out at 3180 nM; on EGFR^L858R/T790M/C797S, 11.8 nM; at EGFR^19del/T790M/C797S, 7.4 nM; at EGFR^WT, 186 nM.
Regarding `C=CC(=O)Nc1cc(Nc2nccc(-c3cn(C)c4ccccc34)n2)c(OC)cc1N(C)CCN(C)C` [Osimertinib, reference compound], the IC50 in the series with BaF3 parent cell (BaF3, CCK-8, 72 hours) was determined as 2370 nM; in series [3] (CCK-8, 72 hours) it was 2100 nM.
Regarding `CCS(=O)(=O)n1cc2c3ccc(cc31)OCC(C)Cn1cc(cn1)-c1cc(c(OC)cc1N1CCOCC1)Nc1nccc-2n1` (centres unmarked) [WQX-1-80, (Z)-1^1-(ethylsulfonyl)-4^6-Methoxy-7-methyl-4^4-morpholino-1^1H,5^1H-9-oxa-3-aza-1(3,6)-indole-2(4,2)-pyrimidin-5(4,1)-pyrazol-4(1,3)-benzenacyclononaphane], the GI50 in series [1] turned out to be 734 nM; in series [2] it was 311 nM. The IC50 with BaF3 parent cell (BaF3, CCK-8, 72 hours) is 1870 nM; on EGFR^L858R/T790M/C797S it was 53.2 nM; on EGFR^19del/T790M/C797S, 23.3 nM; on EGFR^WT, > 1000 nM.
Turning to `CCS(=O)(=O)n1cc2c3ccc(cc31)OC(C)CCn1cc(cn1)-c1cc(c(OC)cc1N1CCOCC1)Nc1nccc-2n1` (centres unmarked) [WQX-1-86, (Z)-1^1-(ethylsulfonyl)-4^6-methoxy-8-methyl-4^4-morpholino-1^1H,5^1H-9-oxa-3-aza-1(3,6)-indole-2(4,2)-pyrimidin-5(4,1)-pyrazol-4(1,3)-benzenacyclononaphane], the IC50 in the series on BaF3 parent cell (BaF3, CCK-8, 72 hours) is 2000 nM; on EGFR^L858R/T790M/C797S it was 12.6 nM; on EGFR^19del/T790M/C797S, 8.2 nM; on EGFR^WT, > 1000 nM. Also, the GI50 in series [2] was determined as 465 nM.
With `CCS(=O)(=O)n1cc2c3ccc(cc31)OCCCCCCOc1cc(c(C)cc1N1CCOCC1)Nc1ncc(Cl)c-2n1` [reference compound], in series [4] (IV 1 mg/kg), the peak level (Cmax) was 2420 ± 165 ng/mL; the clearance – broadly, the rate of elimination divided by the concentration – amounted to 16.2 ± 1.4 mL/min/kg; the half-life (as a rule, how long it takes for the measured level to halve) was 1.35 ± 0.18 h. In series [4] (PO 5 mg/kg), the concentration peaked (Cmax) at 135 ng/mL and the half-life was 2.57 h. For the same molecule, in series [4] (PO 5 mg/kg, read-out: F (oral bioavailability)), the bioavailability – broadly, the share of a dose that reaches the circulation, judged against a reference dose that is usually intravenous – worked out at 11.9%.

The record behind these values is patent US20260184725A1, “CYCLIC 2-AMINOPYRIMIDINE COMPOUND AND PHARMACEUTICAL COMPOSITION AND USE THEREOF” (SHANGHAI INSTITUTE OF ORGANIC CHEMISTRY, CHINESE ACADEMY OF …, priority 2023, published 2026).
